Key:
[1] = biological target: T1, ABL1(H396P)-phosphorylated (Homo sapiens, UniProt P00519, H396P); experiment: KINOMEscan; format: binding; conditions: 1 uM
T1 construct: purchased Ambit KINOMEscan (DiscoverX)
Summary of the method: (§1)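 Panel profiling at one dose (1 μM) identifies kinases prevented from binding substrate by the test molecule.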

[2] = biological target: T2, PIK3CA(I800L) (Homo sapiens, UniProt P42336, I800L); experiment: KINOMEscan; format: binding; conditions: 1 uM
T2 construct: purchased Ambit KINOMEscan (DiscoverX)
Summary of the method: as §1

[3] = biological target: T3, NEK4 (Homo sapiens, UniProt P51957); experiment: KINOMEscan; format: binding; conditions: NEK4, 1 uM
T3 construct: purchased Ambit KINOMEscan (DiscoverX)
Summary of the method: as §1

[4] = biological target: T4, FLT3(R834Q) (Homo sapiens, UniProt P36888, R834Q); experiment: KINOMEscan; format: binding; conditions: 1 uM
T4 construct: purchased Ambit KINOMEscan (DiscoverX)
Summary of the method: as §1

[5] = biological target: T5, RET (Homo sapiens, UniProt P07949); experiment: KINOMEscan; format: binding; conditions: 1 uM
T5 construct: purchased Ambit KINOMEscan (DiscoverX)
Summary of the method: as §1

[6] = biological target: T6, MTOR (Homo sapiens, UniProt P42345); experiment: KINOMEscan; format: binding; conditions: 1 uM
T6 construct: purchased Ambit KINOMEscan (DiscoverX)
Summary of the method: as §1

[7] = biological target: T7, EGFR(L858R,T790M) (Homo sapiens, UniProt P00533, L858R/T790M); experiment: KINOMEscan; format: binding; conditions: 1 uM
T7 construct: purchased Ambit KINOMEscan (DiscoverX)
Summary of the method: as §1

[8] = biological target: T8, RET(V804M) (Homo sapiens, UniProt P07949, V804M); experiment: KINOMEscan; format: binding; conditions: 1 uM
T8 construct: purchased Ambit KINOMEscan (DiscoverX)
Summary of the method: as §1

[9] = test system: HCT-116 (K-RAS^G13D/+); experiment: Cell viability (Syto60); format: cell-based
Experimental: (§2) All colon cancer cell lines were maintained in DMEM supplemented with penicillin (100 units/mL), streptomycin (100 μg/mL), and 10% fetal bovine serum (FBS). The rectal cancer cell line (Car1) was maintained in DMEM/F12 supplemented with penicillin (100 units/mL)/streptomycin (50 μg/mL), and 5% FBS. […] The target sequences for knockdowns can be found in Table S2. In drug treatment experiments, cells were plated for 24 hours prior to exposure to drug. AZ-628 was obtained from AstraZeneca. CI-1040 was obtained from Pfizer. R406 was synthesized in the Gray laboratory. BAY61-3606 and IKK VII were purchased from EMD Biosciences. BAY derivatives were synthesized for this study.
(§3) Cell cycle analysis was performed via FACS-based propidium iodide quantification, using standard methods. To measure cell viability, cells were grown in 96-well plates in the presence or absence of drug for 72 hours, fixed with 4% paraformaldehyde, and then stained with Syto60 (Invitrogen). Plates were imaged and quantified using the LiCor Odyssey system (LiCor).

[10] = test system: colorectal cancer cells expressing mutant B-RAF (V600E) (HT-29, RKO); experiment: Cell viability (Syto60); format: cell-based; conditions: HT-29 and RKO, 72 hours
Experimental: as §2, §3

T3 sequence (P51957 whole entry): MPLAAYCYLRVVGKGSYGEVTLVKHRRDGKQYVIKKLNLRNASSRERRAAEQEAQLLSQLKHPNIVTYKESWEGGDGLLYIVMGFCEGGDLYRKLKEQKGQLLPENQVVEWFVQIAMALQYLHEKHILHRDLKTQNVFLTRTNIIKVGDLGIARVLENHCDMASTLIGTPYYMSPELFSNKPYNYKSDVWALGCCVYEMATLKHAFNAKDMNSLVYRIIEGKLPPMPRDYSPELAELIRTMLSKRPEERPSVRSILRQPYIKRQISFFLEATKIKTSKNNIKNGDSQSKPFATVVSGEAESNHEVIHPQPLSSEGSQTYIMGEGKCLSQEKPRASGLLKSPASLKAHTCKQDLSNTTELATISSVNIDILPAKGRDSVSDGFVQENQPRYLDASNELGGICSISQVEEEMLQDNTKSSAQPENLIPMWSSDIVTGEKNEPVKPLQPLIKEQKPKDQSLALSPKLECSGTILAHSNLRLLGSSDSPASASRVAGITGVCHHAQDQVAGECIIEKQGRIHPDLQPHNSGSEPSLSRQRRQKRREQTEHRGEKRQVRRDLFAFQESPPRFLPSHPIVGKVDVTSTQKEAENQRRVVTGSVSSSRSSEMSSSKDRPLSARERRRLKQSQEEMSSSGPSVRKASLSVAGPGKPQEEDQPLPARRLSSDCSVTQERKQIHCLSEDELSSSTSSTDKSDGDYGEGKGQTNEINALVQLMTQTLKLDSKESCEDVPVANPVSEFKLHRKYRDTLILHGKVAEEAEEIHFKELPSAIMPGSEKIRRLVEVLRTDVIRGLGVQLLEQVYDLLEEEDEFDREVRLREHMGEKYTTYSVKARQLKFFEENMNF
T5 sequence (P07949 29-1114): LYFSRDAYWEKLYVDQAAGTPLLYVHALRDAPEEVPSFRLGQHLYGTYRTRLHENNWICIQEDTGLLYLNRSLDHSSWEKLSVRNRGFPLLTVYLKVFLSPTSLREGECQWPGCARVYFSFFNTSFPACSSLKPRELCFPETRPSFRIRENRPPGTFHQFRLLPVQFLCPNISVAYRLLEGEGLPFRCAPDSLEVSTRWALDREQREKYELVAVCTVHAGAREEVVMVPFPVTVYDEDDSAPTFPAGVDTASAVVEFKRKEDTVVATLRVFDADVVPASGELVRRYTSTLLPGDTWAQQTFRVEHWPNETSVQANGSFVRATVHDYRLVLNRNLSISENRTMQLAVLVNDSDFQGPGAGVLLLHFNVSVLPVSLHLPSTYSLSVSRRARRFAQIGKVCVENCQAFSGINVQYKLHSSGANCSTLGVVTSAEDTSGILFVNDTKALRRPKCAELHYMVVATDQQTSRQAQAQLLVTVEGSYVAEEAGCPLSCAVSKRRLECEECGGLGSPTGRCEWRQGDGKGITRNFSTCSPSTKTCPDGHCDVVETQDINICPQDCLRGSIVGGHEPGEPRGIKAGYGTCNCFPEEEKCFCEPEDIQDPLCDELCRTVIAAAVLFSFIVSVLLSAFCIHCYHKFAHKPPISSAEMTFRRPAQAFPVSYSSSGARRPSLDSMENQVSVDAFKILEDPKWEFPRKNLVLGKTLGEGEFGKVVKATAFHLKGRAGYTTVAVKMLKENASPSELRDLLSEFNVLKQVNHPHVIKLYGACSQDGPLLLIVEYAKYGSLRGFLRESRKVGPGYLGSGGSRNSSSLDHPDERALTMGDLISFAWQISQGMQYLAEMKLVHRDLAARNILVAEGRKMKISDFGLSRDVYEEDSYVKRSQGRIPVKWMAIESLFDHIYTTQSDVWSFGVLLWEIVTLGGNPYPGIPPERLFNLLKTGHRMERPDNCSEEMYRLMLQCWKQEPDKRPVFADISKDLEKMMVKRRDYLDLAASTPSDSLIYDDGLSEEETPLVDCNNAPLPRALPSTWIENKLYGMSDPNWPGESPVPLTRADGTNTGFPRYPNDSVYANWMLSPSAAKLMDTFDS
T7 sequence (P00533 25-1210 T790M/L858R): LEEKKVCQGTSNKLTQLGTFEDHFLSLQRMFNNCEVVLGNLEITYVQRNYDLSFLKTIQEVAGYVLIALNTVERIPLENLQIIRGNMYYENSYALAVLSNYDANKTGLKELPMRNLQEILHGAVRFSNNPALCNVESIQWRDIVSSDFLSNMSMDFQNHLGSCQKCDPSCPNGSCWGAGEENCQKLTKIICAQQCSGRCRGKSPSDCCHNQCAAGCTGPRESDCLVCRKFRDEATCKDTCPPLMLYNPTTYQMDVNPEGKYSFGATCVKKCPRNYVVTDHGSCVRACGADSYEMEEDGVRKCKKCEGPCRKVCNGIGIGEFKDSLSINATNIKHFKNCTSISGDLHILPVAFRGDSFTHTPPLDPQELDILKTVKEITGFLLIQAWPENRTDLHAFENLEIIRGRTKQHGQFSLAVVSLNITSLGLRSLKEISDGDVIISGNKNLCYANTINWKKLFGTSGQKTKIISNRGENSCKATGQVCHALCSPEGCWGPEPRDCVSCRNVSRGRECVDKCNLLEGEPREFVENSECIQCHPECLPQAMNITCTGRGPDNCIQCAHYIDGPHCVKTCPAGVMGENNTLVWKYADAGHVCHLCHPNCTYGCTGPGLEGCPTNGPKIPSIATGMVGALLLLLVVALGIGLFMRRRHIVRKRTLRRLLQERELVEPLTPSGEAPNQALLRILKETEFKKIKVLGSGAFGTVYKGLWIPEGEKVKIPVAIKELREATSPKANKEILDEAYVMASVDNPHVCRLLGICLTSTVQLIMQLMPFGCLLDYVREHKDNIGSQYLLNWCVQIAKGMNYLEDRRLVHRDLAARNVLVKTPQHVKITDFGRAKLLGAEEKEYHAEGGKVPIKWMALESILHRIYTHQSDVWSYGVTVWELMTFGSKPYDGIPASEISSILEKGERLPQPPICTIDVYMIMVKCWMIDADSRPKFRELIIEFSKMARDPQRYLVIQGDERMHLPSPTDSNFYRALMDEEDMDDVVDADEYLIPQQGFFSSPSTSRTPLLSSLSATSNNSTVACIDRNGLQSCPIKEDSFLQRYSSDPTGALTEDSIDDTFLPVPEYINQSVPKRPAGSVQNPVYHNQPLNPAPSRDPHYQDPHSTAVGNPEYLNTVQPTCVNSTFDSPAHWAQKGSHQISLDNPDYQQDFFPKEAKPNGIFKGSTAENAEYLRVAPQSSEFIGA
T2 sequence (P42336 whole entry I800L): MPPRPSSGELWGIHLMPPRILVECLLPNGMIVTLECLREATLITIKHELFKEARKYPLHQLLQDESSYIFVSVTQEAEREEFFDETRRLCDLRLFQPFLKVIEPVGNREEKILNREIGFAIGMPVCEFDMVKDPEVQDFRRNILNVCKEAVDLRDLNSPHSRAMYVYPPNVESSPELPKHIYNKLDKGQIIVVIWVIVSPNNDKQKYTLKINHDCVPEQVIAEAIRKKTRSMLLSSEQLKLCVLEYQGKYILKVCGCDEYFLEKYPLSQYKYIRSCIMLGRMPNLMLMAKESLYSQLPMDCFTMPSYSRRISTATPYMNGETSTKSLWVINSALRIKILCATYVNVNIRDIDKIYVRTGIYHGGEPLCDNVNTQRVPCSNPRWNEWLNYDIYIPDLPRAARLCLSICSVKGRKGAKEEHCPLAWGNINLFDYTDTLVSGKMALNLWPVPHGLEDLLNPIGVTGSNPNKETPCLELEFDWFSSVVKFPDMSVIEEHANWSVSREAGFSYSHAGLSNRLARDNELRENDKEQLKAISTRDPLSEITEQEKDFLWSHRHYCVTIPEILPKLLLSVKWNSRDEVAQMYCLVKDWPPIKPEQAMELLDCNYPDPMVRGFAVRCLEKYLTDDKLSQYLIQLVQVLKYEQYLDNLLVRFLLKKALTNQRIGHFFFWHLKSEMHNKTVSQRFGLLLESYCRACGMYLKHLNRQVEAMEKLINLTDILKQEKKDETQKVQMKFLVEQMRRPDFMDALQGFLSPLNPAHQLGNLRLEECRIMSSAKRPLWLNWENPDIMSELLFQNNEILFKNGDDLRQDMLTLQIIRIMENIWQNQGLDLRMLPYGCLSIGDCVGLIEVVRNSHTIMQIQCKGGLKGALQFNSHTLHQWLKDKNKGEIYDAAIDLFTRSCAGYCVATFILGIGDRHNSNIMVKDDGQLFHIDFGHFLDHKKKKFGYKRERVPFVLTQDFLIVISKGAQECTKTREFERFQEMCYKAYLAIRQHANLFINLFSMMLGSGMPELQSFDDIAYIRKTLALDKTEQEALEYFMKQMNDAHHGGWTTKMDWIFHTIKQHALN
T8 sequence (P07949 29-1114 V804M): as the sequence (P07949 29-1114) above, with V776M counted along it

SMILES | % binding compared to no inhibitor control [1] [%] | % binding compared to no inhibitor control [2] [%] | % binding compared to no inhibitor control [3] [%] | % binding compared to no inhibitor control [4] [%] | % binding compared to no inhibitor control [5] [%] | % binding compared to no inhibitor control [6] [%] | % binding compared to no inhibitor control [7] [%] | % binding compared to no inhibitor control [8] [%] | sensitivity of cells expressing mutant K-RAS (cell viability) ([9]; 72 hours, HCT-116 compared to HKe-3, normalized to DMSO) | cooperation with AZ-628 (cell viability) ([9]; HCT-116, 72 hours, 1 µM AZ-628) | cell viability, combination of BAY61-3606 and CI-1040 [10] | sensitivity of cells expressing mutant B-RAF (cell viability) ([10]; single agent)
COc1ccccc1Nc1nc(-c2ccc(OC)c(OC)c2)cc2nccn12 [BAY derivative 6] | 100 | 100 | 85 | 100 | 100 | 67 | 85 | 94 | – | – | – | –
COc1ccc(-c2cc3nccn3c(Nc3ncccc3C(N)=O)n2)cc1OC.Cl.Cl [BAY61-3606, 2-[7-(3,4-dimethoxyphenyl)-imidazo [1,2-c]pyrimidin-5-ylamino] nicotinamide dihydrochloride, reference compound] | – | – | – | – | – | – | – | – | relatively sensitive | did not cooperate | cooperated to produce an enhanced response | sensitive

Reference: publication PMC3399817 (PLoS ONE, 2012)
